Results taken from ChEMBL document CHEMBL5034019, “Discovery of the Next-Generation Pan-TRK Kinase Inhibitors for the Treatment of Cancer” (J Med Chem, 2021).

What was measured:
[1] = system: Epidermal growth factor receptor (Homo sapiens), P00533 [L861Q]; assay: Inhibition of recombinant human EGFR L861Q mutant (696 to end residues) assessed as residual activity at 0.5 uM using poly(Glu, Tyr) 4:1 as substrate at 40 mins in presence of [gamma-33ATP] by scintillation counting based radiometry assay relative to control
[2] = Oral bioavailability in male Sprague-Dawley rat at 10 mg/kg measured up to 24 hrs by LC/MS/MS analysis; format: ADME, organism-based; conditions: in vivo
[3] = target: Vascular endothelial growth factor receptor 2 (Homo sapiens) (UniProt P35968); assay: Inhibition of human KDR (790 to end residues) assessed as residual activity at 0.5 uM using myelin basic protein as substrate after 40 mins by [gamma-33ATP] radiometric assay relative to control
Sequence of Vascular endothelial growth factor receptor 2 (Homo sapiens) (P35968 whole entry): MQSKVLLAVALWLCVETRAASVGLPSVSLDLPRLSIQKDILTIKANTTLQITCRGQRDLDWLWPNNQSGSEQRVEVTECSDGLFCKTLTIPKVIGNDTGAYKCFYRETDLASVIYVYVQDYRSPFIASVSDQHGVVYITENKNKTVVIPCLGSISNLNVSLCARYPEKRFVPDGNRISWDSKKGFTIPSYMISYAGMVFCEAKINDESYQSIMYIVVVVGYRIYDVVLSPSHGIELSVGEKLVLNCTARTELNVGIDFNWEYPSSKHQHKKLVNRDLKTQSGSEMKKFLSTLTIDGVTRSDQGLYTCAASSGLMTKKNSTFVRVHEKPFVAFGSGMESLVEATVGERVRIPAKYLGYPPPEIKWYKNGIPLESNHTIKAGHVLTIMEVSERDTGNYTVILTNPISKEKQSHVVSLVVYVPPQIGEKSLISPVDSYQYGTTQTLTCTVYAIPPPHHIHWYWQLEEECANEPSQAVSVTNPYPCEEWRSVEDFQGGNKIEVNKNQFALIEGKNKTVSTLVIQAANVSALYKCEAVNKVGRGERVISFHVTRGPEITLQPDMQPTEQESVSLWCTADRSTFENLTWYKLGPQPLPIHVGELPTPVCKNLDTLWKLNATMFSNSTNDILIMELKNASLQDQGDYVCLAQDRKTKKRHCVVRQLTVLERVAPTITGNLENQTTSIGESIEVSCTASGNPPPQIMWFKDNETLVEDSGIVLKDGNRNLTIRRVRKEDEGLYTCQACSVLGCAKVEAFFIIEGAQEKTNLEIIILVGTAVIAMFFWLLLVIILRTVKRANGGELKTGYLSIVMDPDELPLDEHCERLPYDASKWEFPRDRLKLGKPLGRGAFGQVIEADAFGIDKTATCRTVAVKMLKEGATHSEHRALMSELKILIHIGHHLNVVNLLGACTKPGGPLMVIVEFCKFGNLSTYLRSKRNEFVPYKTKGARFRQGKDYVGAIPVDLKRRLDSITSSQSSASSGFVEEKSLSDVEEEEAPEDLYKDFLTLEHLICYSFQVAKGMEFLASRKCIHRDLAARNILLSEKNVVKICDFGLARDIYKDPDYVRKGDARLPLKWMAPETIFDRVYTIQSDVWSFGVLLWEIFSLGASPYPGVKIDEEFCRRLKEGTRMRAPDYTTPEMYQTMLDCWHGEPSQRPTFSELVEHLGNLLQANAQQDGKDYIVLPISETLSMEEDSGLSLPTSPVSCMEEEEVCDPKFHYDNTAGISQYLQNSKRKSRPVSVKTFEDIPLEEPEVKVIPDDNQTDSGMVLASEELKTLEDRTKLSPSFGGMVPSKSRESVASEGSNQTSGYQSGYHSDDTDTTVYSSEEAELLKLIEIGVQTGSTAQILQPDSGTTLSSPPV

[4] = Cmax in male Sprague-Dawley rat at 10 mg/kg, po measured up to 24 hrs by LC-MS/MS analysis; format: ADME, organism-based; set-up: route oral, dose 10 mg/kg, time <=24; conditions: in vivo
[5] = system: Hepatocyte growth factor receptor (Homo sapiens), P08581 [Y1248H]; assay: Inhibition of recombinant human Met Y1248H mutant (974 to end residues) assessed as residual activity at 0.5 uM using KKKGQEEEYVFIE as substrate incubated for 40 mins in presence of [gamma-33P]-ATP by scintillation counting method relative to control
[6] = Toxicity in […] xenografted with mouse BaF3 cells transfected with ETV6-NTRK3 assessed as weight loss at 20 mg/kg, po administered once daily for 21 days and measured twice weekly; format: organism-based; conditions: in vivo, 504 h, time 21 day
[7] = AUC (0 to t) in male Sprague-Dawley rat at 10 mg/kg, po measured up to 24 hrs by LC-MS/MS analysis; format: ADME, organism-based; set-up: route oral, dose 10 mg/kg, time <=24; conditions: in vivo
[8] = system: Tyrosine-protein kinase Blk (Homo sapiens), P51451 [UNDEFINED MUTATION]; assay: Inhibition of full-length recombinant human BLK M287V mutant assessed as residual activity at 0.5 uM using poly(Glu, Tyr) 4:1 as substrate measured after 40 mins in presence of [gamma33P]ATP by scintillation counting method relative to control
Sequence of Tyrosine-protein kinase Blk (Homo sapiens), P51451 [UNDEFINED MUTATION] (P51451 whole entry, looked up, stated change not applied): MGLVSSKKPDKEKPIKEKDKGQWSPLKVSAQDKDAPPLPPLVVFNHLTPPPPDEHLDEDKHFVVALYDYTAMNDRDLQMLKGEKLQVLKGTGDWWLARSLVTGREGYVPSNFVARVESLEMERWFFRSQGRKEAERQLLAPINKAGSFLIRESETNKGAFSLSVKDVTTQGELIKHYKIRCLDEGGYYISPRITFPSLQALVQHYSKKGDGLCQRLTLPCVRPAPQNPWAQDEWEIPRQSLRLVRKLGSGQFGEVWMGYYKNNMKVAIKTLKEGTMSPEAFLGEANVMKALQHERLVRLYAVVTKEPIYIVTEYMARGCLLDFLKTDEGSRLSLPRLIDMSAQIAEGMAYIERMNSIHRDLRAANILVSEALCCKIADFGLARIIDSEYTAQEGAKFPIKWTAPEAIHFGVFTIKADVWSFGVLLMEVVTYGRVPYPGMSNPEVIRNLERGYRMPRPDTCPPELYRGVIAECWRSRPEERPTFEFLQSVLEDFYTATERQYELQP

[9] = system: Epidermal growth factor receptor (Homo sapiens), P00533 [L858R]; assay: Inhibition of recombinant human EGFR L858R mutant (696 to end residues) assessed as residual activity at 0.5 uM using poly(Glu, Tyr) 4:1 as substrate at 40 mins in presence of [gamma-33ATP] by scintillation counting based radiometry assay relative to control
[10] = AUC (0 to t) in female Sprague-Dawley rat at 2 mg/kg, iv measured up to 24 hrs by LC-MS/MS analysis; format: ADME, organism-based; set-up: route intravenous, dose 2 mg/kg, time <=24; conditions: in vivo
[11] = target: ALK tyrosine kinase receptor (Homo sapiens, UniProt Q9UM73)
Description: Inhibition of ALK (unknown origin) incubated for 120 mins in presence of 33P-ATP

[12] = target: Tyrosine-protein kinase JAK3 (Homo sapiens) (UniProt P52333); assay: Inhibition of human JAK3 (781 to end residues) assessed as residual activity at 0.5 uM using GGEEEEYFELVKKKK as substrate after 40 mins by [gamma-33ATP] radiometric assay relative to control
Sequence of Tyrosine-protein kinase JAK3 (Homo sapiens) (P52333 whole entry): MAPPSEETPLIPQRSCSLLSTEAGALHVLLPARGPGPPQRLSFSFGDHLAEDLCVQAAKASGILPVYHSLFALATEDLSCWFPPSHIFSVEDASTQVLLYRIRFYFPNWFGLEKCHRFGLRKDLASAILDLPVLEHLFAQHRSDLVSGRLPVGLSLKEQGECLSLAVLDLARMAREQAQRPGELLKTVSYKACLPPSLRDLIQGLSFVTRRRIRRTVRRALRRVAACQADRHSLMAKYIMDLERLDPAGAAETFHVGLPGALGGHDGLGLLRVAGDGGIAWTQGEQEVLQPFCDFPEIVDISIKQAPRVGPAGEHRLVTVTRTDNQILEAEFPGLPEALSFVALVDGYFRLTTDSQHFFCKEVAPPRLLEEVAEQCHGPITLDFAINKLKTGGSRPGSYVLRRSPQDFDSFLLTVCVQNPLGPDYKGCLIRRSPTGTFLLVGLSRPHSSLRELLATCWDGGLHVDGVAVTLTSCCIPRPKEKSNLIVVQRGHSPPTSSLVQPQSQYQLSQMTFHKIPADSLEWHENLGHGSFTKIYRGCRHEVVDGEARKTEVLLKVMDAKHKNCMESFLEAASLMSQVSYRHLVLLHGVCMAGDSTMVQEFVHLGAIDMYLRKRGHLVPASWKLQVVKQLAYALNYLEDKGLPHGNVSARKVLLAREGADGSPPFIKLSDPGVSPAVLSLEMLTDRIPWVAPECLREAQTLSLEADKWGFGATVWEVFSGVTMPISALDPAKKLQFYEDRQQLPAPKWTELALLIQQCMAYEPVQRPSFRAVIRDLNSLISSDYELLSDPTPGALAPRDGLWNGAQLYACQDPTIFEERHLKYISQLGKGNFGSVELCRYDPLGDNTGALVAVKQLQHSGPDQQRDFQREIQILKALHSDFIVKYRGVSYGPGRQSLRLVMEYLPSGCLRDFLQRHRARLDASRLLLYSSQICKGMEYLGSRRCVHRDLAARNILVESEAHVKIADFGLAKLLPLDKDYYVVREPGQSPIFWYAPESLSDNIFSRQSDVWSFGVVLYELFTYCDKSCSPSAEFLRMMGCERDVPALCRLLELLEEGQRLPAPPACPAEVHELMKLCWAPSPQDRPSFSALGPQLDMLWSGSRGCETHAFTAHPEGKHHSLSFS

[13] = Half life in female Sprague-Dawley rat at 2 mg/kg, iv measured up to 24 hrs by LC-MS/MS analysis; format: ADME, organism-based; conditions: in vivo
[14] = system: Proto-oncogene tyrosine-protein kinase receptor Ret (Homo sapiens), P07949 [V804L]; assay: Inhibition of recombinant human Ret V804L mutant (658 to end residues) assessed as residual activity at 0.5 uM using KKKSPGEYVNIEFG as substrate incubated for 40 mins in presence of [gamma33P]ATP by scintillation counting based radiometry assay relative to control
Sequence of Proto-oncogene tyrosine-protein kinase receptor Ret (Homo sapiens), P07949 [V804L] (P07949 whole entry V804L, the tested form may be a part): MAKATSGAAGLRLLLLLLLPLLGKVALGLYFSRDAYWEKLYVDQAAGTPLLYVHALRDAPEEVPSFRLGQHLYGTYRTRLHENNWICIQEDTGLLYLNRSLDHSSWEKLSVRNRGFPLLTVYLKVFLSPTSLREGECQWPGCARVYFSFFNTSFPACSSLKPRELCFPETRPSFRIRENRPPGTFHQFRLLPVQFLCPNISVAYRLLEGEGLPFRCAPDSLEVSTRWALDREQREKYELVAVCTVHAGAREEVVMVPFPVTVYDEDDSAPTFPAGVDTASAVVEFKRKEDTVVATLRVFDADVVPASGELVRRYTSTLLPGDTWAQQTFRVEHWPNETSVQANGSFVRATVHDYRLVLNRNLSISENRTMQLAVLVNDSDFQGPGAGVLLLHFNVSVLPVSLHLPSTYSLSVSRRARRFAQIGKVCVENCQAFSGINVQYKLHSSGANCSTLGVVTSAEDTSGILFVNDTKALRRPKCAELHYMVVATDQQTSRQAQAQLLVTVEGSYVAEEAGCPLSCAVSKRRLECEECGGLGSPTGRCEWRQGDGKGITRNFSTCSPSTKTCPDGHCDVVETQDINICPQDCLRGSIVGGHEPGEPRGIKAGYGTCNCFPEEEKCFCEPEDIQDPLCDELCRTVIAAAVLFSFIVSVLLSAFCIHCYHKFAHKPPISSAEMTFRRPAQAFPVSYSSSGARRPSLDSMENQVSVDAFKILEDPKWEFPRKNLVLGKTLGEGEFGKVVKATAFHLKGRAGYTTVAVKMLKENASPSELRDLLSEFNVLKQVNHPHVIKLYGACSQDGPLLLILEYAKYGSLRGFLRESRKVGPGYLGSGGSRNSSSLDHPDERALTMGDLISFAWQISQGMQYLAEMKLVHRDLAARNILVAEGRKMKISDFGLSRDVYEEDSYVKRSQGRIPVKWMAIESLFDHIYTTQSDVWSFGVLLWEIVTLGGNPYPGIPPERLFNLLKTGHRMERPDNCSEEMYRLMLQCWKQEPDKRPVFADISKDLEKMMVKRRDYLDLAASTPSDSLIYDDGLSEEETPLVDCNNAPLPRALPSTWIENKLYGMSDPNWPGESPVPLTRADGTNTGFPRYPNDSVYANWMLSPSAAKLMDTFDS

[15] = target: Receptor-interacting serine/threonine-protein kinase 2 (Homo sapiens) (UniProt O43353); assay: Inhibition of recombinant human RIPK2 (1 to 299 residues) assessed as residual activity at 0.5 uM using myelin basic protein as substrate incubated for 120 mins in presence of [gamma33P]ATP by scintillation counting based radiometry assay relative to control
Sequence of Receptor-interacting serine/threonine-protein kinase 2 (Homo sapiens) (O43353 whole entry, the tested form may be a part): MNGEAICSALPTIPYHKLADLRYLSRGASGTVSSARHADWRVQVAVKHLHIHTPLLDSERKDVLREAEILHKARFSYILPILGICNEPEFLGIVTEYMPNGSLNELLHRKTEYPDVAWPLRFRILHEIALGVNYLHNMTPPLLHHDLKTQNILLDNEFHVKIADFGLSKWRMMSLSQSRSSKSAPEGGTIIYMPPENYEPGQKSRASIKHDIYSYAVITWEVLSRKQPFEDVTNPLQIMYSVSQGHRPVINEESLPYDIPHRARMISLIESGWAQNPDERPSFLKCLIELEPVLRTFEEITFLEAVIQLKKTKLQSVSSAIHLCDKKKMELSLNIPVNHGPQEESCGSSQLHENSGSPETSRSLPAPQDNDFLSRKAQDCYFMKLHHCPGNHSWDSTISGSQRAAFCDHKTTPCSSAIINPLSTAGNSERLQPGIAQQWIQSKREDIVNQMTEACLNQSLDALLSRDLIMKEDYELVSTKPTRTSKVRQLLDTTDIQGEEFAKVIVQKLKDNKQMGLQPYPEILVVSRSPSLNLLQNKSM

[16] = target: Proto-oncogene tyrosine-protein kinase receptor Ret (Homo sapiens) (UniProt P07949); assay: Inhibition of recombinant human Ret (658 to end residues) assessed as residual activity at 0.5 uM using KKKSPGEYVNIEFG as substrate incubated for 40 mins in presence of [gamma33P]ATP by scintillation counting based radiometry assay relative to control
Sequence of Proto-oncogene tyrosine-protein kinase receptor Ret (Homo sapiens) (P07949 whole entry): as the sequence (P07949 whole entry V804L, the tested form may be a part) above, with L804V counted along it

cells = conditions: Homo sapiens, CUTO-3
Description: Antiproliferative activity against TrK fused human CUTO-3 cells

[17] = Toxicity in mouse xenografted with mouse BaF3 cells transfected with LMNA-NTRK1 assessed as death at 100 mg/kg, po administered once daily for 21 days and measured twice weekly; conditions: in vivo, 504 h
[18] = C0 in Sprague-Dawley rat at 3 mg/kg measured up to 24 hrs by LC/MS/MS analysis; format: ADME, organism-based; conditions: in vivo

Activity [1] | bioavailability [2] | Activity [3] | Cmax [4] | Activity [5] | AUC(0-t) at 24 h [7] | Activity [8] | Activity [9] | AUC(0-t) at 24 h [10] | IC50 [11] | Activity [12] | half-life [13] | Activity [14] | Activity [15] | Activity [16] | Structure (SMILES) | Activity [6] | IC50 (cells) | Activity [17] | C0 [18]
95% | 56% | 108% | 6.38 µM | 89% | 11.7 µM·h | 46% | 91% | 10.3 µM·h | 182 nM | 94% | 2.21 h | 59% | 93% | 64% | O=C1NC2(CC2)COc2ncc(F)cc2[C@H]2COCCN2c2ccn3ncc1c3n2 | Toxic |  |  | 
 |  |  |  |  |  |  |  |  |  |  |  |  |  |  | C[C@@H]1CCc2ncc(F)cc2[C@H]2CCCN2c2ccn3ncc(c3n2)C(=O)N1 [SELITRECTINIB] |  | ≤ 5 nM | Toxic | 23.779 µM
